Experimental data reported in paper PMC9028278, “2-Pyridine Carboxaldehyde for Semi-Automated Soft Spot Identification in Cyclic Peptides” (International Journal of Molecular Sciences, 2022).
Where a SMILES comes first, the peptide text is derived from it. Bridges are numbered along the chain shown (N, C = ends).

Test: Soft spot identification time course in dilute rat intestinal luminal contents with 2PCA derivatization
Format: in vitro ADME
Details: 10 µM peptide; for metabolic soft spot: most N-terminal residue of the ring-opened (singly hydrolyzed) peptide, assigned through the 2PCA tag: dilute rat intestinal luminal contents (fasted male SD rats, duodenum and jejunum), 0.02 mg/mL total protein in 5 mM pH 7.4 phosphate buffer, 37 °C, aliquots at 0, 2.5, 10, 20 min, quenched with acetonitrile containing 20 mM 2PCA, overnight at room temperature, LC-MS/MS (targeted MS/MS, AIF, background subtraction)
Description: This three-pronged approach was used to analyze two commercially available cyclic peptides, JB1 and somatostatin, in a typical soft spot identification workflow with automated sample preparation. Both JB1, a 12-mer cyclic peptide with the sequence CYAAPLKPAKSC, and somatostatin, a 14-mer cyclic peptide with the sequence AGCKNFFWKTFTSC (disulfide bound between Cys residues), were subjected to incubation in dilute rat intestinal luminal contents matrix on a liquid handling system. To facilitate unsupervised sample preparation, the enzymatic activity of the matrix was quenched with 1 volume of acetonitrile containing 20 mM 2PCA and incubated overnight. The following day, the samples were injected into the MS for analysis directly with the approach outlined in Figure 3. To increase the throughput and proportion of ‘hands-off’ time, the derivatization step was not quenched, and excess reagent or Schiff bases formed during the incubation were not scavenged by hydrazide (as was performed during the selectivity experiments on the tryptic HeLa lysate). While omitting the hydrazide scavenging step could introduce a decrease in sensitivity due to Schiff base formation on basic sites, the concentrations typically used in in vitro incubations ensure that minor decreases in sensitivity will not have deleterious effects on the workflow as a whole. In this case, the liquid handler utilized was unable to manipulate magnetic beads, but future experiments will incorporate a magnetic-bead-compatible liquid handler to incorporate the scavenging step. The method described has the potential to create more than one 2PCA adduct on a given peptide with basic sites, but the utilization of a targeted approach for the singly modified peptide as outlined here circumvents that complication and ensures MS/MS sampling of the peptide of interest.
HeLa S9 lysate tryptic digest was purchased from ThermoFisher (San Jose, CA, USA). […]
The flushed intestinal luminal contents from fasted rats were pooled and the concentration of protein was determined. […]

Row | Structure (SMILES) | metabolic soft spot: most N-terminal residue of the ring-opened (singly hydrolyzed) peptide, assigned through the 2PCA tag | secondary metabolite (subsequent hydrolysis step after ring opening) (dilute rat intestinal luminal contents, 0.02 mg/mL protein, pH 7.4, 37 °C, 10 min time point, background subtracted AIF XIC of m/z 107.0609)
1 | CC(C)C[C@@H]1NC(=O)[C@@H]2CCCN2C(=O)[C@H](C)NC(=O)[C@H](C)NC(=O)[C@H](Cc2ccc(O)cc2)NC(=O)[C@@H](N)CSSC[C@@H](C(=O)O)NC(=O)[C@H](CO)NC(=O)[C@H](CCCCN)NC(=O)[C@H](C)NC(=O)[C@@H]2CCCN2C(=O)[C@H](CCCCN)NC1=O [JB1] (H-CYAAPLKPAKSC-OH; disulfide 1-12) | serine | clipping of the C-terminal Lysine residue
2 | C[C@H](N)C(=O)NCC(=O)N[C@H]1CSSC[C@@H](C(=O)O)NC(=O)[C@H](CO)NC(=O)[C@H]([C@@H](C)O)NC(=O)[C@H](Cc2ccccc2)NC(=O)[C@H]([C@@H](C)O)NC(=O)[C@H](CCCCN)NC(=O)[C@H](Cc2c[nH]c3ccccc23)NC(=O)[C@H](Cc2ccccc2)NC(=O)[C@H](Cc2ccccc2)NC(=O)[C@H](CC(N)=O)NC(=O)[C@H](CCCCN)NC1=O [somatostatin] | first threonine (followed by phenylalanine) | 
